Assay results as given in US4725591A, “β-lactamase inhibitory composition” (Takeda Chemical Industries, Ltd., priority 1980, dated 1988).

How the values were obtained:
[1] = biological target: T1, β-lactamase produced by Enterobacter cloacae IFO 12937 (Enterobacter cloacae, UniProt P05364); test: Inhibitor concentration required to inhibit β-lactamase (cephalosporinase) activity by 50%, micro-iodometric method; format: biochemical; details: Enterobacter cloacae IFO 12937 cephalosporinase; 0.05M phosphate buffer pH 7, 30° C., 10 minutes preincubation; cephalothin or ampicillin 0.1 mM; read-out: I50 (converted)
T1 construct: The β-lactamase produced by Enterobacter cloacae IFO 12937; endogenous in cells; host or cells: Enterobacter cloacae IFO 12937
Protocol: (§1) Determination of the inhibitor concentration required to inhibit the enzyme activity by 50%
(§2) The β-lactamase produced by Enterobacter cloacae IFO 12937 is used as a typical example of cephalosporinase, and that produced by Staphylococcus aureus 1840 as typical example of penicillinase. The β-lactamase in incubated is 0.05M phosphate buffer (pH 7) with an appropriate dilution of an inhibitor preparation at 30° C. for 10 minutes. Cephalothin or ampicillin is then added in an amount sufficient to produce a final concentration of 0.1 mM, and the enzymatic reaction is allowed to proceed for 10 minutes. The enzyme activity is determined by the micro-iodometric method [Journal of general Microbiology, vol. 33, page 121 (1963)]. Hereinafter, the inhibitor concentration required to inhibit the enzyme activity by 50% is expressed as I50. The I50 values for Enterobacter cloaceae are shown in Table 1, and the I50 values for Staphylococcus aureus in Table 2.

Proteus morganii TN 387 = test: Synergy with Cefotiam, agar dilution MIC; format: cell-based; details: 18 hours; for MIC of Cefotiam with 1 μg/ml of Compound: Table 4, 1 μg/ml test compound in agar, inoculum 10^8 per ml
Protocol: (§3) The inoculum concentration is 10^8 per ml, and the medium is prepared by using Trypticase® soy agar (Becton Dickinson & Company, USA).

[2] = test system: Enterobacter cloacae IFO 12937; test: Synergy with Cefotiam, agar dilution MIC; format: cell-based; details: 18 hours; for MIC of Cefotiam with 1 μg/ml of Compound: Table 4, 1 μg/ml test compound in agar, inoculum 10^8 per ml
Protocol: as §3

Proteus vulgaris GN 5297 = test: Synergy with Cefotiam, agar dilution MIC; format: cell-based; details: 18 hours; for MIC of Cefotiam with 1 μg/ml of Compound: inoculum 10^8 per ml; for MIC of Cefotiam alone: Trypticase soy agar, unit assumed
Protocol: as §3

[3] = test system: Citrobacter freundii TN 512; test: Synergy with Cefotiam, agar dilution MIC; format: cell-based; details: 18 hours; for MIC of Cefotiam with 1 μg/ml of Compound: Table 4, 1 μg/ml test compound in agar, inoculum 10^8 per ml
Protocol: as §3

[4] = test system: Citrobacter freundii GN 1706; test: Synergy with Cefotiam, agar dilution MIC; format: cell-based; details: 18 hours; for MIC of Cefotiam with 1 μg/ml of Compound: inoculum 10^8 per ml; for MIC of Cefotiam alone: Trypticase soy agar, unit assumed
Protocol: as §3

[5] = test system: Enterobacter cloacae TN 587; test: Synergy with Cefotiam, agar dilution MIC; format: cell-based; details: 18 hours; for MIC of Cefotiam with 1 μg/ml of Compound: Table 3, 1 μg/ml test compound in agar, inoculum 10^8 per ml
Protocol: as §3

[6] = test system: Serratia marcescens IFO 12648; test: Synergy with Cefotiam, agar dilution MIC; format: cell-based; details: 18 hours; for MIC of Cefotiam with 1 μg/ml of Compound: Table 3, 1 μg/ml test compound in agar, inoculum 10^8 per ml
Protocol: as §3

[7] = test system: Citrobacter freundii IFO 12681; test: Synergy with Cefotiam, agar dilution MIC; format: cell-based; details: 18 hours; for MIC of Cefotiam with 1 μg/ml of Compound: Table 3, 1 μg/ml test compound in agar, inoculum 10^8 per ml
Protocol: as §3

[8] = test system: Proteus morganii IFO 3168; test: Synergy with Cefotiam, agar dilution MIC; format: cell-based; details: 18 hours; for MIC of Cefotiam with 1 μg/ml of Compound: Table 3, 1 μg/ml test compound in agar, inoculum 10^8 per ml
Protocol: as §3

[9] = biological target: T2, β-lactamase produced by Staphylococcus aureus 1840 (Staphylococcus aureus, UniProt P00807); test: Inhibitor concentration required to inhibit β-lactamase (penicillinase) activity by 50%, micro-iodometric method; format: biochemical; details: Staphylococcus aureus 1840 penicillinase; 0.05M phosphate buffer pH 7, 30° C., 10 minutes preincubation; cephalothin or ampicillin 0.1 mM; read-out: I50 (converted)
T2 construct: endogenous in cells; host or cells: Staphylococcus aureus 1840
Protocol: as §1, §2

[10] = Table 4, 1 μg/ml test compound in agar
[11] = Table 3, 1 μg/ml test compound in agar
[12] = Table 3, inoculum 10^8 per ml, Trypticase soy agar, unit assumed
[13] = Table 4, inoculum 10^8 per ml, Trypticase soy agar, unit assumed

T1 sequence (P05364 21-381): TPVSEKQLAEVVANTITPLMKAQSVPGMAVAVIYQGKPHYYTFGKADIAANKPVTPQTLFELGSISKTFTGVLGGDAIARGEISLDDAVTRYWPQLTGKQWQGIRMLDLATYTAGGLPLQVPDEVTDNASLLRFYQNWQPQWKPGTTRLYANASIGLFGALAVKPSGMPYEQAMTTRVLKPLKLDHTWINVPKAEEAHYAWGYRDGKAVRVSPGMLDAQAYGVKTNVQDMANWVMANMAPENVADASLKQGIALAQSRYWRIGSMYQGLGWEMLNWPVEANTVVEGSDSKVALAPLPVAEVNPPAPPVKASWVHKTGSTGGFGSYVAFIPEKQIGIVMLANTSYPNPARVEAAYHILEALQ
T2 sequence (P00807 25-281): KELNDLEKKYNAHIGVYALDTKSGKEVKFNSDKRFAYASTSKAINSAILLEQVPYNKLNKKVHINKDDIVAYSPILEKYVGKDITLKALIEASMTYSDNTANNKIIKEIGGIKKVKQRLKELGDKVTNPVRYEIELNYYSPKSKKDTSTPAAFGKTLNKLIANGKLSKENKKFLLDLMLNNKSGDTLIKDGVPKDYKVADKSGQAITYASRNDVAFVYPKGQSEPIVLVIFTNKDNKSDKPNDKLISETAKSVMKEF

SMILES | IC50 [1] | MIC of Cefotiam with 1 μg/ml of Compound (Proteus morganii TN 387) | MIC of Cefotiam with 1 μg/ml of Compound [2] | MIC of Cefotiam with 1 μg/ml of Compound (Proteus vulgaris GN 5297; [10]) | MIC of Cefotiam with 1 μg/ml of Compound [3] | MIC of Cefotiam with 1 μg/ml of Compound [4, 10] | further results
CC(C)(C)OC(=O)C(C)(C)ON=C(C(=O)NC1CN(S(=O)(=O)[O-])C1=O)c1csc(NS(=O)(=O)[O-])n1.[Na+].[Na+] (centres unmarked) | 9.14 nM | 0.2 | 0.39 | < 0.2 | 0.39 | 3.13 | –
CC(C)ON=C(C(=O)NC1CN(S(=O)(=O)[O-])C1=O)c1csc(NS(C)(=O)=O)n1.[Na+] (centres unmarked) | 4.4 nM | – | – | – | – | – | MIC of Cefotiam with 1 μg/ml of Compound [5]: 12.5; MIC of Cefotiam with 1 μg/ml of Compound [6]: 200; MIC of Cefotiam with 1 μg/ml of Compound [7]: 12.5; MIC of Cefotiam with 1 μg/ml of Compound (Proteus vulgaris GN 5297; [11]): 100; MIC of Cefotiam with 1 μg/ml of Compound [4, 11]: 100; MIC of Cefotiam with 1 μg/ml of Compound [8]: 25
CC(C)ON=C(C(=O)NC1CN(S(=O)(=O)[O-])C1=O)c1csc(=N)n1S(C)(=O)=O.[Na+] (centres unmarked) | 4.19 nM | – | – | – | – | – | MIC of Cefotiam with 1 μg/ml of Compound [5]: 3.13; MIC of Cefotiam with 1 μg/ml of Compound [6]: 200; MIC of Cefotiam with 1 μg/ml of Compound [7]: 6.25; MIC of Cefotiam with 1 μg/ml of Compound (Proteus vulgaris GN 5297; [11]): 100; MIC of Cefotiam with 1 μg/ml of Compound [4, 11]: 50; MIC of Cefotiam with 1 μg/ml of Compound [8]: 50
CN(C)CCn1nnnc1SCC1=C(C(=O)O)N2C(=O)[C@@H](NC(=O)Cc3csc(N)n3)[C@H]2SC1 [Cefotiam, reference compound] | – | – | – | – | – | – | MIC of Cefotiam alone [5, 12]: > 400 µg/mL; MIC of Cefotiam alone [6, 12]: > 400 µg/mL; MIC of Cefotiam alone [7, 12]: 200 µg/mL; MIC of Cefotiam alone (Proteus morganii TN 387; [13]): 200 µg/mL; MIC of Cefotiam alone [2, 13]: 100 µg/mL; MIC of Cefotiam alone (Proteus vulgaris GN 5297; Table 3, inoculum 10^8 per ml): 100 µg/mL; MIC of Cefotiam alone (Proteus vulgaris GN 5297; Table 4, inoculum 10^8 per ml): 400 µg/mL; MIC of Cefotiam alone [3, 13]: 625 µg/mL; MIC of Cefotiam alone ([4]; Table 3, inoculum 10^8 per ml): 200 µg/mL; MIC of Cefotiam alone ([4]; Table 4, inoculum 10^8 per ml): 50 µg/mL; MIC of Cefotiam alone [8, 12]: 400 µg/mL
COC1(NC(=O)[C@H](NC(=O)N2CCN(N=Cc3ccco3)C2=O)c2ccccc2)CN(S(=O)(=O)O)C1=O (some centres unmarked) [Compound 3] | 617 nM | 0.39 | 3.13 | 400 | 0.39 | 12.5 | –
Cc1onc(-c2c(Cl)cccc2Cl)c1C(=O)NC1CN(S(=O)(=O)O)C1=O (centres unmarked) [Compound 9] | 162 nM | < 0.2 | 0.39 | 100 | 0.39 | 3.13 | –
CON=C(C(=O)NC1CN(S(=O)(=O)O)C1=O)c1csc(N)n1 (centres unmarked) [Compound 12] | 4010 nM | 25 | 0.2 | 25 | < 0.2 | 25 | –
Cc1onc(-c2c(Cl)cccc2Cl)c1C(=O)N[C@@H](C(=O)NC1CN(S(=O)(=O)O)C1=O)c1cccs1 (stereo partly drawn) [Compound 25, Sodium 3-[D-2-[[3-(2,6-dichlorophenyl)-5-methylisoxazol-4-yl]-carboxamido]-2-thienylacetamido]-2-oxoazetidine-1-suflonate] | 6440 nM | – | – | – | – | – | IC50 [9]: 715 nM
CC(C)(C)OC(=O)C(C)(C)ON=C(C(=O)NC1CN(S(=O)(=O)O)C1=O)c1csc(NC(c2ccccc2)(c2ccccc2)c2ccccc2)n1 (centres unmarked) [Compound 27, Sodium 3-[2-(2-tritylaminothiaozl-4-yl)-2-[(1-tert-butoxycarbonyl-1-methylethoxy)imino]acetamido]-2-oxoazetidine-1-sulfonate] | 69.5 nM | < 0.2 | 0.39 | < 0.2 | 0.39 | 3.13 | –
CC(C)ON=C(C(=O)NC1CN(S(=O)(=O)O)C1=O)c1csc(NC(=O)CCl)n1 (centres unmarked) [Compound 28, Sodium 3-[2-(2-chloroacetamidothiazol-4-yl)-2-(1-methylethoxyimino)acetamido]-2-oxoazetidine-1-sulfonae] | 2420 nM | – | – | – | – | – | MIC of Cefotiam with 1 μg/ml of Compound [5]: 50; MIC of Cefotiam with 1 μg/ml of Compound [6]: 200; MIC of Cefotiam with 1 μg/ml of Compound [7]: 50; MIC of Cefotiam with 1 μg/ml of Compound (Proteus vulgaris GN 5297; [11]): 100; MIC of Cefotiam with 1 μg/ml of Compound [4, 11]: 50; MIC of Cefotiam with 1 μg/ml of Compound [8]: 100
CON=C(C(=O)NC1CN(S(=O)(=O)O)C1=O)c1csc(NS(=O)(=O)O)n1 (centres unmarked) [Compound 29] | 163 nM | 100 | 0.78 | 200 | 0.39 | 12.5 | –
CCOC(=O)C(C(=O)c1ccccc1)=C1SC(C(=O)NC2CN(S(=O)(=O)O)C2=O)S1 (centres unmarked) [Compound 54] | – | – | – | – | – | – | IC50 [9]: 2540 nM
